Measured values reported in patent US8415351B2 (priority 2007, dated 2013).

Key:
[1] = test system: genotype 1a-H77 subgenomic replicon cell line; assay: microbe, parasite or virus in culture; format: cell-based, HCV; settings: Hepatitis C virus, read-out: EC50 1a
[2] = biological target: T1, HCV polymerase 1B (Δ21 NS5B, BK) (Hepatitis C virus genotype 1b, UniProt P26663); assay: biochemical
T1 construct: 20 to 50 nM Δ21 NS5B
Summary of the method: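 Δ21 NS5B (genotype 1b, BK […]) preincubated 15 min RT with inhibitor, 2 mM MnCl2, pH 7.4, 60–125 μM GTP; started with 20 μM CTP/ATP, 1 μM 3H-UTP, 5 nM template RNA, run 2–4 h RT. Spermine-precipitated RNA filter-captured, scintillation counted; IC50 from tight-binding (Morrison) fit.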

[3] = biological target: T2, HCV polymerase 1A (Δ21 NS5B, H77) (Hepatitis C virus genotype 1a, UniProt P27958); assay: biochemical; settings: IC50 1a
T2 construct: 20 to 50 nM Δ21 NS5B
Summary of the method: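 Incorporation of 1 μM ^3H-UTP, with 20 μM each of CTP and ATP on 5 nM template RNA, ran 2–4 h at room temperature. Spermine-precipitated product was filtered and scintillation-counted. IC50 came from tight-binding non-linear regression of cpm against inhibitor concentration.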

[4] = test system: genotype 1b-Con1 subgenomic replicon cell line; assay: microbe, parasite or virus in culture; format: cell-based, HCV; settings: Hepatitis C virus, read-out: EC50 1b

T1 sequence (P26663 2420-2989, stated change not applied): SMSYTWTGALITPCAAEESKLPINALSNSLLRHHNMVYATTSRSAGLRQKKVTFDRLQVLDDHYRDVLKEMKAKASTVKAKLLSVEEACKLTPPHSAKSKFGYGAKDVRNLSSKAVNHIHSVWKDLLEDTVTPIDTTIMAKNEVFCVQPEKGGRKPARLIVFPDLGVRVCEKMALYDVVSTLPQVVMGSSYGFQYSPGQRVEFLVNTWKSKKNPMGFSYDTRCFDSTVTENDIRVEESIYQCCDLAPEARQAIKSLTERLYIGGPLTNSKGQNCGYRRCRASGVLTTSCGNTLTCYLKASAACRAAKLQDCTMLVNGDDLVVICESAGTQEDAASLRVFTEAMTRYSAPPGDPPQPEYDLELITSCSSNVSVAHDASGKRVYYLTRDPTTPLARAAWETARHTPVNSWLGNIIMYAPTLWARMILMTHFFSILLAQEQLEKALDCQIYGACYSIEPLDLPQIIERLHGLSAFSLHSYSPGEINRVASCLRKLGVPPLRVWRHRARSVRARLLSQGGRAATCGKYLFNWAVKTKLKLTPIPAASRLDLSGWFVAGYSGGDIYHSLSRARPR
T2 sequence (P27958 2421-2990, stated change not applied): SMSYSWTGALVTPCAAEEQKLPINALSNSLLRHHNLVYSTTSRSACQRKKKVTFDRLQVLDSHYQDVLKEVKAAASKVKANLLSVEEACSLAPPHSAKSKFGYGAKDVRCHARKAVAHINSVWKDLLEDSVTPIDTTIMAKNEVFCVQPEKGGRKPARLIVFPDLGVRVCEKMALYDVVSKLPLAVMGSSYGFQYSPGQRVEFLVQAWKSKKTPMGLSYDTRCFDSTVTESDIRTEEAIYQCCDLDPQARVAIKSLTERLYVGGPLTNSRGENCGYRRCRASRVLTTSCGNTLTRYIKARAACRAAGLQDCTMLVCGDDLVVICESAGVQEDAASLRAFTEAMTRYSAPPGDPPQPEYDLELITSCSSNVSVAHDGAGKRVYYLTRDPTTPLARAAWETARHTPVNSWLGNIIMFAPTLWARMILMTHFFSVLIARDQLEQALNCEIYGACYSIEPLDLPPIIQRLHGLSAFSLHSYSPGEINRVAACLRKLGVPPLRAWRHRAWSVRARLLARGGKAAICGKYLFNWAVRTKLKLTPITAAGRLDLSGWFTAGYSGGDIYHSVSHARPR

Compound: CC(C)(C)c1cc(N2CCC(=O)NC2=O)cc(C(=O)Nc2ccc3c(c2)CS(=O)(=O)C3)c1O [IA-L3-2.5, 3-tert-butyl-N-(2,2-dioxo-1,3-dihydrobenzo[c]thiophen-5-yl)-5-(2,4-dioxotetrahydropyrimidin-1(2H)-yl)-2-hydroxybenzamide]
- EC50 [1]: > 1000 nM
- IC50 [2]: 100 to 1000 nM
- IC50 [3]: > 1000 nM
- EC50 [4]: > 1000 nM

Compound: CC(C)(C)c1cc(NC(=O)c2ccc(NS(C)(=O)=O)cc2)cc(N2CCC(=O)NC2=O)c1 [IA-L4-1.1, N-(3-tert-butyl-5-(2,4-dioxotetrahydropyrimidin-1(2H)-yl)phenyl)-4-(methylsulfonamido) benzamide]
- EC50 [1]: > 1000 nM
- IC50 [2]: 100 to 1000 nM
- IC50 [3]: 100 to 1000 nM
- EC50 [4]: > 1000 nM

Compound: CC(C)(C)c1cc(N2CCC(=O)NC2=O)cc(NC(=O)c2ccc(NS(C)(=O)=O)cc2)c1O [IA-L4-1.3, N-(3-tert-butyl-5-(2,4-dioxotetrahydropyrimidin-1(2H)-yl)-2-hydroxyphenyl)-4-(methylsulfon amido)benzamide]
- EC50 [1]: > 1000 nM
- IC50 [2]: 100 to 1000 nM
- IC50 [3]: 100 to 1000 nM
- EC50 [4]: > 1000 nM

Compound: CC(C)(C)c1cc(N2CCC(=O)NC2=O)cc(NC(=O)c2ccc(CS(C)(=O)=O)cc2)c1O [IA-L4-1.4, N-(3-tert-butyl-5-(2,4-dioxotetrahydropyrimidin-1(2H)-yl)-2-hydroxyphenyl)-4-(methylsulfonylmethyl)benzamide]
- EC50 [1]: > 1000 nM
- IC50 [2]: > 1000 nM
- IC50 [3]: > 1000 nM
- EC50 [4]: > 1000 nM

Compound: COc1c(N(C)C(=O)c2ccc(NS(C)(=O)=O)cc2)cc(N2CCC(=O)NC2=O)cc1C(C)(C)C [IA-L4-1.7, N-(3-tert-butyl-5-(2,4-dioxotetrahydropyrimidin-1(2H)-yl)-2-methoxyphenyl)-N-methyl-4-(methylsulfonamido)benzamide]
- EC50 [1]: > 1000 nM
- IC50 [2]: > 1000 nM
- IC50 [3]: 100 to 1000 nM
- EC50 [4]: > 1000 nM

Compound: COc1c(NC(=O)c2ccccc2)cc(N2CCC(=O)NC2=O)cc1C(C)(C)C [IA-L4-1.8, N-(3-tert-butyl-5-(2,4-dioxotetrahydropyrimidin-1(2H)-yl)-2-methoxyphenyl)benzamide]
- EC50 [1]: > 1000 nM
- IC50 [2]: 100 to 1000 nM
- IC50 [3]: > 1000 nM
- EC50 [4]: 100 to 1000 nM

Compound: COc1cc(NS(C)(=O)=O)ccc1C(=O)Nc1cc(N2CCC(=O)NC2=O)cc(C(C)(C)C)c1OC [IA-L4-1.11, N-(3-tert-butyl-5-(2,4-dioxotetrahydropyrimidin-1(2H)-yl)-2-methoxyphenyl)-2-methoxy-4-(methylsulfonamido)benzamide]
- EC50 [1]: 100 to 1000 nM
- IC50 [2]: 10 to 100 nM
- IC50 [3]: < 10 nM
- EC50 [4]: 10 to 100 nM

Compound: COc1c(NC(=O)c2ccc(NS(C)(=O)=O)cc2Cl)cc(N2CCC(=O)NC2=O)cc1C(C)(C)C [IA-L4-1.12, N-(3-tert-butyl-5-(2,4-dioxotetrahydropyrimidin-1(2H)-yl)-2-methoxyphenyl)-2-chloro-4-(methylsulfonamido)benzamide]
- EC50 [1]: 100 to 1000 nM
- IC50 [2]: 10 to 100 nM
- IC50 [3]: 10 to 100 nM
- EC50 [4]: 100 to 1000 nM

Compound: COc1c(COc2ccc(NS(C)(=O)=O)cc2)cc(N2CCC(=O)NC2=O)cc1C(C)(C)C [IA-L6-1.1, N-(4-(3-tert-butyl-5-(2,4-dioxotetrahydropyrimidin-1(2H)-yl)-2-methoxybenzyloxy)phenyl)methanesulfonamide]
- EC50 [1]: 100 to 1000 nM
- IC50 [2]: 100 to 1000 nM
- IC50 [3]: 10 to 100 nM
- EC50 [4]: 10 to 100 nM

Compound: COc1c(CNc2ccc(NS(C)(=O)=O)cc2)cc(N2CCC(=O)NC2=O)cc1C(C)(C)C [IA-L9-1.4, N-(4-(3-tert-butyl-5-(2,4-dioxotetrahydropyrimidin-1(2H)-yl)-2-methoxybenzylamino)phenyl)methanesulfonamide]
- EC50 [1]: > 1000 nM
- IC50 [2]: 100 to 1000 nM
- IC50 [3]: 10 to 100 nM
- EC50 [4]: 100 to 1000 nM

Compound: COc1c(C(=O)Cc2ccc(NS(C)(=O)=O)cc2)cc(N2CCC(=O)NC2=O)cc1C(C)(C)C [IA-L11-1.1, N-(4-(2-(3-tert-butyl-5-(2,4-dioxotetrahydropyrimidin-1(2H)-yl)-2-methoxyphenyl)-2-oxoethyl)phenyl)methanesulfonamide]
- EC50 [1]: 100 to 1000 nM
- IC50 [2]: 10 to 100 nM
- IC50 [3]: 10 to 100 nM
- EC50 [4]: 10 to 100 nM

Compound: COc1c(CC(=O)c2ccc(NS(C)(=O)=O)cc2)cc(N2CCC(=O)NC2=O)cc1C(C)(C)C [IA-L12-1.1, N-(4-(2-(3-tert-butyl-5-(2,4-dioxotetrahydropyrimidin-1(2H)-yl)-2-methoxyphenyl)acetyl)phenyl)methanesulfonamide]
- EC50 [1]: 100 to 1000 nM
- IC50 [2]: 10 to 100 nM
- IC50 [3]: 10 to 100 nM
- EC50 [4]: 10 to 100 nM

Compound: COc1c(-c2ccc(/C=N/NS(C)(=O)=O)cc2)cc(-n2ccc(=O)[nH]c2=O)cc1C(C)(C)C [IB-L0-1.1, (E)-N′-((3′-tert-butyl-5′-(2,4-dioxo-3,4-dihydropyrimidin-1(2H)-yl)-2′-methoxybiphenyl-4-yl)methylene)methanesulfonohydrazide]
- EC50 [1]: 10 to 100 nM
- IC50 [2]: < 10 nM
- IC50 [3]: < 10 nM
- EC50 [4]: 10 to 100 nM

Compound: COc1c(-c2ccc(NS(C)(=O)=O)cc2)cc(-n2ccc(=O)[nH]c2=O)cc1C(C)(C)C [IB-L0-1.2, N-(3′-tert-butyl-5′-(2,4-dioxo-3,4-dihydropyrimidin-1(2H)-yl)-2′-methoxybiphenyl-4-yl)methanesulfonamide]
- EC50 [1]: > 1000 nM
- IC50 [2]: 100 to 1000 nM
- IC50 [3]: 100 to 1000 nM
- EC50 [4]: > 1000 nM

Compound: COc1c(-c2ccc(/C=N/NS(C)(=O)=O)c(F)c2)cc(-n2ccc(=O)[nH]c2=O)cc1C(C)(C)C [IB-L0-1.3, (E)-N′-((3′-tert-butyl-5′-(2,4-dioxo-3,4-dihydropyrimidin-1(2H)-yl)-3-fluoro-2′-methoxybiphenyl-4-yl)methylene)methanesulfonohydrazide]
- EC50 [1]: 100 to 1000 nM
- IC50 [2]: 10 to 100 nM
- IC50 [3]: 10 to 100 nM
- EC50 [4]: 10 to 100 nM

Compound: COc1c(-c2ccc(CCNS(C)(=O)=O)cc2)cc(-n2ccc(=O)[nH]c2=O)cc1C(C)(C)C [IB-L0-1.4, N-(2-(3′-tert-butyl-5′-(2,4-dioxo-3,4-dihydropyrimidin-1(2H)-yl)-2′-methoxybiphenyl-4-yl)ethyl)methanesulfonamide]
- EC50 [1]: 100 to 1000 nM
- IC50 [2]: 10 to 100 nM
- IC50 [3]: 10 to 100 nM
- EC50 [4]: 10 to 100 nM

Compound: COc1c(-c2ccc(/C(C)=N/NS(C)(=O)=O)cc2)cc(-n2ccc(=O)[nH]c2=O)cc1C(C)(C)C [IB-L0-1.5, (E)-N′-(1-(3′-tert-butyl-5′-(2,4-dioxo-3,4-dihydropyrimidin-1(2H)-yl)-2′-methoxybiphenyl-4-yl)ethylidene)methanesulfonohydrazide]
- EC50 [1]: 10 to 100 nM
- IC50 [2]: 10 to 100 nM
- IC50 [3]: 10 to 100 nM
- EC50 [4]: 10 to 100 nM

Compound: COc1ccc(-c2cc(-n3ccc(=O)[nH]c3=O)cc(C(C)(C)C)c2OC)cc1/C=N/NS(C)(=O)=O [IB-L0-1.6, (E)-N′-((3′-tert-butyl-5′-(2,4-dioxo-3,4-dihydropyrimidin-1(2H)-yl)-2′,4-dimethoxybiphenyl-3-yl)methylene)methanesulfonohydrazide]
- EC50 [1]: > 1000 nM
- IC50 [2]: 100 to 1000 nM
- IC50 [3]: 100 to 1000 nM
- EC50 [4]: 100 to 1000 nM

Compound: COc1c(-c2ccc(NC(=O)NS(C)(=O)=O)cc2)cc(-n2ccc(=O)[nH]c2=O)cc1C(C)(C)C [IB-L0-1.7, N-(3′-tert-butyl-5′-(2,4-dioxo-3,4-dihydropyrimidin-1(2H)-yl)-2′-methoxybiphenyl-4-ylcarbamoyl)methanesulfonamide]
- EC50 [1]: > 1000 nM
- IC50 [2]: 10 to 100 nM
- IC50 [3]: 10 to 100 nM
- EC50 [4]: 100 to 1000 nM

Compound: COc1c(-c2cccc(/C(C)=N/NS(C)(=O)=O)c2)cc(-n2ccc(=O)[nH]c2=O)cc1C(C)(C)C [IB-L0-1.9, (E)-N′-(1-(3′-tert-butyl-5′-(2,4-dioxo-3,4-dihydropyrimidin-1(2H)-yl)-2′-methoxybiphenyl-3-yl)ethylidene)methanesulfonohydrazide]
- EC50 [1]: > 1000 nM
- IC50 [2]: 100 to 1000 nM
- IC50 [3]: 100 to 1000 nM
- EC50 [4]: > 1000 nM

Compound: COc1c(-c2cccc(/C=N/NS(C)(=O)=O)c2)cc(-n2ccc(=O)[nH]c2=O)cc1C(C)(C)C [IB-L0-1.10, (E)-N′-((3′-tert-butyl-5′-(2,4-dioxo-3,4-dihydropyrimidin-1(2H)-yl)-2′-methoxybiphenyl-3-yl)methylene)methanesulfonohydrazide]
- EC50 [1]: > 1000 nM
- IC50 [2]: 100 to 1000 nM
- IC50 [3]: 100 to 1000 nM
- EC50 [4]: > 1000 nM

Compound: CC(C)(C)c1cc(-c2ccc3c(c2)CC/C3=N\NS(C)(=O)=O)cc(-n2ccc(=O)[nH]c2=O)c1 [IB-L0-2.7, (E)-N′-(5-(3-tert-butyl-5-(2,4-dioxo-3,4-dihydropyrimidin-1(2H)-yl)phenyl)-2,3-dihydro-1H-inden-1-ylidene)methanesulfonohydrazide]
- EC50 [1]: 100 to 1000 nM
- IC50 [2]: 10 to 100 nM
- IC50 [3]: 10 to 100 nM
- EC50 [4]: 10 to 100 nM

Compound: COc1c(-c2ccc3c(CNS(C)(=O)=O)csc3c2)cc(-n2ccc(=O)[nH]c2=O)cc1C(C)(C)C [IB-L0-2.11, N-((6-(3-tert-butyl-5-(2,4-dioxo-3,4-dihydropyrimidin-1(2H)-yl)-2-methoxyphenyl)benzo[b]thiophen-3-yl)methyl)methanesulfonamide]
- EC50 [1]: 10 to 100 nM
- IC50 [2]: < 10 nM
- IC50 [3]: < 10 nM
- EC50 [4]: < 10 nM
